In one experiment the target is T1, human orexin 1 receptor (Homo sapiens, UniProt O43613).
T1 construct: expressed in transfected cells
T1 sequence (O43613 1-425): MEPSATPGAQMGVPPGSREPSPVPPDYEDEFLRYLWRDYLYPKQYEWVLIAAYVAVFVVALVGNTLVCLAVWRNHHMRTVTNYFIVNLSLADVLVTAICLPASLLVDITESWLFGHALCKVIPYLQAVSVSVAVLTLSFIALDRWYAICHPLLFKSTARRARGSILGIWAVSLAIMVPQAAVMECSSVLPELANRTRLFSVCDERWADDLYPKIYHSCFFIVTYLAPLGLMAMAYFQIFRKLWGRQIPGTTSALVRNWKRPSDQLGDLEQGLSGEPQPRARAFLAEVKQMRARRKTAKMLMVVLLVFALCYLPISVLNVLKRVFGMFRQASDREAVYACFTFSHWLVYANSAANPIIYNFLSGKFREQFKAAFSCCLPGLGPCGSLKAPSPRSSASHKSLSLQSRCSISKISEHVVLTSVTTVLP
The experiment can be described thus: Calcium accumulation in cells (FLIPR), antagonism of orexin A, human orexin 1 receptor. The format is cell-based. The note with it: for Ki: calcium accumulation, antagonism of orexin A, Cheng-Prusoff corrected, read-out: FLIPR hOx1R Ki; for inhibition at 10 µM: measured at a concentration of 10 μM of compound, read-out: FLIPR hOx1R % inhibition. On the procedure:
(§1) Calcium Accumulation in Cells (FLIPR):
(§2) Cells expressing human orexin 1 or human orexin 2 receptors, were seeded at 8,000 cells/well in 384 well black-walled clear bottom, poly-D-lysine coated plates. After 24 h, the medium was removed and cells were washed once with phosphate buffered saline and serum-deprived overnight in assay buffer (130 mM NaCl, 5.4 mM KCl, 1.8 mM CaCl2, 0.8 mM MgSO4, 0.9 mM NaH2PO4, 25 mM glucose, 20 mM HEPES, pH 7.4) containing bovine serum albumin (1% w/v).
(§3) On the day of the experiment, the cells seeded in black plates were treated with assay buffer containing the Ca^2+ sensitive fluorescent dye Fluo-4-AM (2 μM), and probenecid (0.1 mM). After 1 h plates were washed twice with, and resuspended in, assay buffer containing probenecid (0.1 mM) using a multi plate washer. The plates were placed into a FLIPR II (Fluorometric Imaging Plate Reader, Molecular Devices, Sunnyvale, Calif., USA) and baseline fluorescence (fluorescence light units, FLU) was measured (5 measurements, 2 S each; laser excitation 488 nm at 0.6-1 W, CCD camera exposure 0.4 s) before addition of buffer alone (basal) or containing test compounds (either compound of formula I alone, agonist alone or agonist in the presence of various concentrations of compounds of formula I). Fluorescence measurements were then continued every 1 S for 120 S followed by every 4 S for 240 S.
(§4) The measurements were typically made in two sequences:
(§5) Compounds of formula I were tested usually in a concentration range from 10^−9 M to 10^−5 M.
(§6) In the second round, performed one hour later (to allow for equilibration), Orexin A was tested either in the absence (calibration curves, Orexin A agonist controls) or in the presence of compounds of formula Ito determine antagonism.
(§7) Inhibition data is expressed in Table 1 as Kd [μM], converted by the Cheng and Prusoff correction (Kd=IC50/1+(L/EC50)), where IC50 is the 50% inhibition value determined in concentration response inhibition curves, EC50 is the half maximal activation concentration determined for orexin A in concentration response curves and L is the concentration of orexin A used in inhibition experiments performed in with a submaximal concentration of orexin A in the presence of up to 8 increasing concentrations of compound of formula I. Inhibition data is also expressed in Table 1 as % inhibition value measured at a concentration of 10 μM of selected compounds of formula I.

For a further experiment, the target named is T2, human orexin 2 receptor (Homo sapiens, UniProt O43614).
T2 construct: expressed in transfected cells
T2 sequence (O43614 1-444): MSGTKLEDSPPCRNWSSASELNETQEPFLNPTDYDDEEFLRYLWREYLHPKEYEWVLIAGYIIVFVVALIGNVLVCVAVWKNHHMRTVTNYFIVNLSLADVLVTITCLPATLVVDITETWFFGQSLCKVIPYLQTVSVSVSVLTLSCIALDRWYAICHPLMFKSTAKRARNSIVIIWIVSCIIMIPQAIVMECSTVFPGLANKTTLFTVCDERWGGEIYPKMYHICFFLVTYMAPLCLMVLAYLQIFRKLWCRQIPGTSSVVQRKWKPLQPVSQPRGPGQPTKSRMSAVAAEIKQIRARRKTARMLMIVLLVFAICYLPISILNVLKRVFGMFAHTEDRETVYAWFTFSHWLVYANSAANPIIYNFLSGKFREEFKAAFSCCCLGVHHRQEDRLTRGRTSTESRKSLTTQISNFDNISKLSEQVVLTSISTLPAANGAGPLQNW
The experiment can be described thus: Calcium accumulation in cells (FLIPR), antagonism of orexin A, human orexin 2 receptor. The class given is cell-based. Particulars: calcium accumulation, antagonism of orexin A, Cheng-Prusoff corrected; read-out: FLIPR hOx2R Ki. On the procedure:
as §1, §2, §3, §4, §5, §6, §7

For the compound `Cc1cc(C)nc(N2CCC3(CC2)C(=O)N(Cc2c[nH]c4ccccc24)CCN3C)n1` [Example 1.2, 4-((1H-indol-3-yl)methyl)-9-(4,6-dimethylpyrimidin-2-yl)-1-methyl-1,4,9-triazaspiro[5.5]undecan-5-one], the Ki – broadly, a dissociation constant, usually derived from enzyme kinetics or from competition with a known ligand – is 3650 nM on human orexin 1 receptor and 449 nM at human orexin 2 receptor.
In the case of `Cc1cc(C)nc(N2CCC3(CC2)NCCN(Cc2nn(C)cc2-c2ccccc2)C3=O)n1` [Example 1.3, 9-(4,6-Dimethyl-pyrimidin-2-yl)-4-(1-methyl-4-phenyl-1H-pyrazol-3-ylmethyl)-1,4,9-triaza-spiro[5.5]undecan-5-on], the inhibition (in general, the share of the control response that was lost under treatment) at 10 µM on human orexin 1 receptor was determined as 35%. Also, the Ki on human orexin 2 receptor worked out at 334 nM.
For `Cc1ccnc(N2CCC3(CC2)NCCN(Cc2c[nH]c4ccccc24)C3=O)n1` [Example 1.6, 4-((1H-Indol-3-yl)methyl)-9-(4-methylpyrimidin-2-yl)-1,4,9-triazaspiro[5.5] undecan-5-one] the same measures were 26% and 222 nM.
On to `COc1ccnc(N2CCC3(CC2)NCCN(Cc2c[nH]c4ccccc24)C3=O)n1` [Example 1.7, 4-((1H-Indol-3-yl)methyl)-9-(4-methoxypyrimidin-2-yl)-1,4,9-triazaspiro[5.5] undecan-5-one], for which the inhibition at 10 µM on human orexin 1 receptor was 35%. Moreover, the inhibition constant (Ki) at human orexin 2 receptor amounted to 101 nM.
As for `COc1cccc(-c2oc(C)nc2CN2CCNC3(CCN(c4nccc(C)n4)CC3)C2=O)c1` [Example 1.15, 4-((5-(3-Methoxyphenyl)-2-methyloxazol-4-yl)methyl)-9-(4-methylpyrimidin-2-yl)-1,4,9-triazaspiro[5.5] undecan-5-one], the inhibition at 10 µM at human orexin 1 receptor was 44%. The Ki at human orexin 2 receptor was 107 nM.
With `Cc1cc(C)nc(N2CCC3(CC2)NCCN(Cc2nc(C)oc2-c2ccccc2)C3=O)n1` [Example 1.19, 9-(4,6-Dimethyl-pyrimidin-2-yl)-4-((2-methyl-5-phenyloxazol-4-yl)methyl)-1,4,9-triazaspiro[5.5] undecan-5-one], the Ki on human orexin 1 receptor stood at 2650 nM; on human orexin 2 receptor, 250 nM.
As to `Cc1ccnc(N2CCC3(CC2)NCCN(Cc2nc(C)oc2-c2ccccc2)C3=O)n1` [Example 1.20, 9-(4-Methyl-pyrimidin-2-yl)-4-((2-methyl-5-phenyloxazol-4-yl)methyl)-1,4,9-triazaspiro[5.5] undecan-5-one], the inhibition at 10 µM on human orexin 1 receptor worked out at 12%. For the same compound, on human orexin 2 receptor, the Ki was 1840 nM.
`Cc1cc(C#N)nc(N2CCC3(CC2)NCCN(Cc2nc(C)oc2-c2ccccc2)C3=O)n1` [Example 1.21, 6-Methyl-2-(4-((2-methyl-5-phenyloxazol-4-yl)methyl)-5-oxo-1,4,9-triazaspiro[5.5]undecan-9-yl) pyrimidine-4-carbonitrile]: the inhibition at 10 µM at human orexin 1 receptor was found to be 29%. In addition, the inhibitory constant (Ki) at human orexin 2 receptor stood at 337 nM.
As for `COc1ccnc(N2CCC3(CC2)NCCN(Cc2nc(C)oc2-c2ccccc2)C3=O)n1` [Example 1.22, 9-(4-Methoxy-pyrimidin-2-yl)-4-((2-methyl-5-phenyloxazol-4-yl)methyl)-1,4,9-triazaspiro[5.5] undecan-5-one], the inhibition at 10 µM on human orexin 1 receptor stood at 19%. Besides, the Ki at human orexin 2 receptor was determined as 1020 nM.
In the case of `COc1cc(C)nc(N2CCC3(CC2)NCCN(Cc2nc(C)oc2-c2ccccc2)C3=O)n1` [Example 1.23, 9-(4-Methoxy-6-methylpyrimidin-2-yl)-4-((2-methyl-5-phenyloxazol-4-yl)methyl)-1,4,9-triazaspiro[5.5] undecan-5-one], the Ki at human orexin 1 receptor was determined as 2110 nM; at human orexin 2 receptor, 192 nM.
For the compound `COCc1cccc(-c2ocnc2CN2CCNC3(CCN(c4nc(C)cc(C#N)n4)CC3)C2=O)c1` [Example 1.28, 2-(4-((5-(3-(Methoxymethyl)phenyl)oxazol-4-yl)methyl)-5-oxo-1,4,9-triazaspiro[5.5]undecan-9-yl)-6-methylpyrimidine-4-carbonitrile], the inhibition at 10 µM on human orexin 1 receptor worked out at 33%. Further, the Ki on human orexin 2 receptor was 511 nM.
With `COCc1cccc(-c2oc(C)nc2CN2CCNC3(CCN(c4nc(C)cc(C#N)n4)CC3)C2=O)c1` [Example 1.31, 2-(4-((5-(3-(Methoxymethyl)phenyl)-2-methyl-oxazol-4-yl)methyl)-5-oxo-1,4,9-triazaspiro[5.5]undecan-9-yl)-6-methylpyrimidine-4-carbonitrile], the inhibition at 10 µM on human orexin 1 receptor is 38%. For the same compound, at human orexin 2 receptor, the Ki turned out to be 64 nM.
Take `COCc1cccc(-c2oc(C)nc2CN2CCNC3(CCN(c4nc(C)cc(OC)n4)CC3)C2=O)c1` [Example 1.32, 9-(4-Methoxy-6-methylpyrimidin-2-yl)-4-((5-(3-(methoxymethyl)phenyl)-2-methyl-oxazol-4-yl)methyl)-1,4,9-triazaspiro[5.5] undecan-5-one]: the Ki on human orexin 1 receptor stood at 2840 nM; at human orexin 2 receptor, 84 nM.
In the case of `COc1ccc(-c2cn(C)nc2CN2CCNC3(CCN(c4nc(C)cc(C)n4)CC3)C2=O)cc1OC` [Example 1.35, 4-((4-(3,4-Dimethoxyphenyl)-1-methyl-1H-pyrazol-3-yl)methyl)-9-(4,6-dimethylpyrimidin-2-yl)-1,4,9-triazaspiro[5.5] undecan-5-one], the inhibition at 10 µM on human orexin 1 receptor stood at 25%. Moreover, the Ki at human orexin 2 receptor was 400 nM.
For `COc1ccc(-c2cn(C)nc2CN2CCNC3(CCN(c4nc(C)cc(C)n4)CC3)C2=O)cc1` [Example 1.36, 9-(4,6-Dimethyl-pyrimidin-2-yl)-4-((4-(4-methoxyphenyl)-1-methyl-1H-pyrazol-3-yl)methyl)-1,4,9-triazaspiro[5.5] undecan-5-one], in that order: 41% and 187 nM.
Consider `COc1cc(OC)cc(-c2cn(C)nc2CN2CCNC3(CCN(c4nc(C)cc(C)n4)CC3)C2=O)c1` [Example 1.37, 4-((4-(3,5-Dimethoxyphenyl)-1-methyl-1H-pyrazol-3-yl)methyl)-9-(4,6-dimethylpyrimidin-2-yl)-1,4,9-triazaspiro[5.5] undecan-5-one], for which the inhibition at 10 µM at human orexin 1 receptor stood at 40%. Also, the Ki on human orexin 2 receptor turned out to be 2330 nM.
For `Cc1cccc(-c2cn(C)nc2CN2CCNC3(CCN(c4nc(C)cc(C)n4)CC3)C2=O)c1` [Example 1.38, 9-(4,6-Dimethyl-pyrimidin-2-yl)-4-((1-methyl-4-(m-tolyl)-1H-pyrazol-3-yl)methyl)-1,4,9-triazaspiro[5.5] undecan-5-one] the same measures were 29% and 204 nM.
For `Cc1cc(C)nc(N2CCC3(CC2)NCCN(Cc2nn(C)cc2-c2cccc(F)c2)C3=O)n1` [Example 1.43, 9-(4,6-Dimethyl-pyrimidin-2-yl)-4-((4-(3-fluorophenyl)-1-methyl-1H-pyrazol-3-yl)methyl)-1,4,9-triazaspiro[5.5] undecan-5-one] the same measures were 27% and 447 nM.
With `O=C1N(Cc2ccccc2-c2ccccc2)CCC12CCN(c1nc3ccccc3s1)CC2` [Example 3.10, 8-(Benzo[d]thiazol-2-yl)-2-(biphenyl-2-ylmethyl)-2,8-diazaspiro[4.5]decan-1-one], the Ki on human orexin 2 receptor was determined as 1080 nM.

The values above are taken from patent US20120165331A1, “Di/tri-aza-spiro-C9-C11alkanes” (priority 2010, published 2012).
